Results reported in ChEMBL document CHEMBL1201862, “PubChem BioAssay data set” (2004).
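Dose response: 5 concentrations. Exposure: 48 h. Format: 96-well plates. Endpoint: linear interpolation; highest concentration if not reached. GI50 is the concentration that inhibits growth by half.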 Active and inactive are the calls of the source. No stated cut-off is given here; in the data, active = GI50 up to about 1.1 µM and inactive = higher.

What was measured:
Experiment in all cases: inhibition of tumour cell growth, NCI panel, 48 h
OVCAR-3 = test system: OVCAR-3
Malme-3M = test system: Malme-3M
CAKI-1 = test system: CAKI-1
OVCAR-5 = test system: OVCAR-5
NCI-H226 = test system: NCI-H226
TK-10 = test system: TK-10
RPMI-8226 = test system: RPMI-8226
SK-MEL-2 = test system: SK-MEL-2
SW-620 = test system: SW-620
UO-31 = test system: UO-31
SF-268 = test system: SF-268
NCI-H23 = test system: NCI-H23
SF-539 = test system: SF-539
SNB-75 = test system: SNB-75
OVCAR-8 = test system: OVCAR-8
U-251 = test system: U-251
ACHN = test system: ACHN
KM12 = test system: KM12
SK-MEL-5 = test system: SK-MEL-5
HL-60 = test system: HL-60

Row | SMILES | GI50 (OVCAR-3) | GI50 (Malme-3M) | GI50 (CAKI-1) | GI50 (OVCAR-5) | GI50 (NCI-H226) | GI50 (TK-10) | GI50 (RPMI-8226) | GI50 (SK-MEL-2) | GI50 (SW-620) | GI50 (UO-31) | GI50 (SF-268) | GI50 (NCI-H23) | GI50 (SF-539) | GI50 (SNB-75) | GI50 (OVCAR-8) | GI50 (U-251) | GI50 (ACHN) | GI50 (KM12) | GI50 (SK-MEL-5) | GI50 (HL-60)
1 | CN(CCO)CCC1COc2ccccc2O1 (stereo unspecified) | > 10 µM (inactive) | > 10 µM (inactive) | > 10 µM (inactive) | > 10 µM (inactive) | > 10 µM (inactive) | > 10 µM (inactive) | > 10 µM (inactive) | > 10 µM (inactive) | > 10 µM (inactive) | > 10 µM (inactive) | > 10 µM (inactive) | > 10 µM (inactive) | > 10 µM (inactive) | > 10 µM (inactive) | > 10 µM (inactive) | > 10 µM (inactive) | > 10 µM (inactive) | > 10 µM (inactive) | > 10 µM (inactive) | > 10 µM (inactive)
2 | CCCCCCCCC[C@@H]1C[C@H](O)[C@H](Cc2ccccc2)N1C(=O)OC(C)(C)C | 20.3 µM (inactive) | 20.1 µM (inactive) | 21.9 µM (inactive) | 15.1 µM (inactive) | – | 15.5 µM (inactive) | 24.1 µM (inactive) | 15.3 µM (inactive) | 20.1 µM (inactive) | 14.3 µM (inactive) | 18.7 µM (inactive) | 15.6 µM (inactive) | 20.9 µM (inactive) | 21.9 µM (inactive) | 17.5 µM (inactive) | 16.1 µM (inactive) | 17.1 µM (inactive) | 18.7 µM (inactive) | 19.1 µM (inactive) | 22.9 µM (inactive)
3 | N#C/C(=C\c1ccc(Br)cc1)c1nc(-c2cc3ccccc3oc2=O)cs1 | – | 10.5 µM (inactive) | 48.4 µM (inactive) | 31 µM (inactive) | 11.9 µM (inactive) | 10.2 µM (inactive) | 44.1 µM (inactive) | 17.1 µM (inactive) | 19.8 µM (inactive) | 20.2 µM (inactive) | 14.5 µM (inactive) | – | 14 µM (inactive) | 7.14 µM (inactive) | 15.9 µM (inactive) | 9.93 µM (inactive) | 10.8 µM (inactive) | 19.1 µM (inactive) | 21.8 µM (inactive) | > 50 µM (inactive)
4 | CCCC(=O)OC[n+]1ccc2c(C)c3[nH]c4ccc(OC)cc4c3c(C)c2c1 | 0.873 µM (active) | 1.45 µM (inactive) | 0.908 µM (active) | 0.675 µM (active) | 0.444 µM (active) | 2.9 µM (inactive) | 0.0296 µM (active) | 1.16 µM (inactive) | 0.0692 µM (active) | 1.74 µM (inactive) | 0.313 µM (active) | 0.347 µM (active) | 0.305 µM (active) | 1.16 µM (inactive) | 0.092 µM (active) | 0.391 µM (active) | 0.215 µM (active) | 0.337 µM (active) | 1.19 µM (inactive) | 0.259 µM (active)
5 | COC(=O)[C@@H]1c2cc3c(c(O)c2[C@@H](OC)C[C@@]1(C)O)C(=O)c1c(O)cc2c(c1C3=O)OC1O[C@@]2(C)[C@H](O)[C@@H](N(C)C)[C@@H]1O | 0.361 µM (active) | 0.506 µM (active) | 0.26 µM (active) | 0.508 µM (active) | 0.301 µM (active) | – | 0.192 µM (active) | 0.28 µM (active) | 0.193 µM (active) | 1.14 µM (inactive) | 0.528 µM (active) | 0.428 µM (active) | 2.69 µM (inactive) | 0.245 µM (active) | 0.234 µM (active) | 0.307 µM (active) | – | 0.379 µM (active) | 0.364 µM (active) | 0.142 µM (active)
6 | COc1ccc(-c2cc(C(O)C3CCCCN3)c3ccccc3n2)cc1 (stereo unspecified) | 14.4 µM (inactive) | 13.6 µM (inactive) | 5.86 µM (inactive) | 12 µM (inactive) | 7.06 µM (inactive) | 10.4 µM (inactive) | 2.33 µM (inactive) | 6.12 µM (inactive) | 9.59 µM (inactive) | 3.59 µM (inactive) | 11.2 µM (inactive) | 13.4 µM (inactive) | 10.1 µM (inactive) | 4.31 µM (inactive) | 13.7 µM (inactive) | 3.63 µM (inactive) | 11.9 µM (inactive) | 4.14 µM (inactive) | 6.25 µM (inactive) | 11.1 µM (inactive)
7 | CC(C)CCC1CC2C(=O)N(c3ccccc3)C(=O)C2c2[nH]c3ccccc3c21 (stereo unspecified) | 0.885 µM (active) | 0.871 µM (active) | – | 17.5 µM (inactive) | 2.66 µM (inactive) | 4.53 µM (inactive) | 1.08 µM (active) | – | 0.796 µM (active) | 6.28 µM (inactive) | 2.05 µM (inactive) | 2.79 µM (inactive) | 0.711 µM (active) | 2.22 µM (inactive) | 0.9 µM (active) | 0.455 µM (active) | 6.07 µM (inactive) | 1.28 µM (inactive) | 0.347 µM (active) | 1.11 µM (active)
8 | COc1cc(C(C)c2cc3c(cc2OCCO)OCO3)cc(OC)c1OC (stereo unspecified) | 0.538 µM (active) | > 100 µM (inactive) | 5.11 µM (inactive) | > 100 µM (inactive) | 2.86 µM (inactive) | 18.3 µM (inactive) | 4.59 µM (inactive) | 2 µM (inactive) | 0.746 µM (active) | 5.82 µM (inactive) | 3.9 µM (inactive) | 1.91 µM (inactive) | 1.6 µM (inactive) | 1.2 µM (inactive) | 3.27 µM (inactive) | 2.48 µM (inactive) | 10.1 µM (inactive) | – | 0.667 µM (active) | 0.313 µM (active)
9 | CC1(C)N=C(N)N=C(N)N1c1ccc(Cl)cc1 | – | 26.2 µM (inactive) | 19.1 µM (inactive) | 15 µM (inactive) | 85.5 µM (inactive) | 48.8 µM (inactive) | 6.81 µM (inactive) | 10 µM (inactive) | 1.48 µM (inactive) | 47.2 µM (inactive) | 0.708 µM (active) | 3.44 µM (inactive) | 4.42 µM (inactive) | > 100 µM (inactive) | 0.817 µM (active) | 1.3 µM (inactive) | 5.16 µM (inactive) | 8.73 µM (inactive) | 8.11 µM (inactive) | 15.4 µM (inactive)
10 | C[C@H]1[C@@H]2C[C@@H]3O[C@@]34[C@H]3CCC5Cc6nc7c(nc6C[C@@]5(C)[C@]3(O)CC(=O)[C@@]24CO[C@]12OC(C)(C)C[C@@H]2O)CC1CC[C@@H]2C3=C[C@H]4O[C@@]5(OC(C)(CO)C[C@@H]5O)[C@H](C)[C@@]4(O)[C@]3(C)[C@@H](O)CC2[C@]1(C)C7 (stereo partly specified) | 0.7 µM (active) | 0.0381 µM (active) | 0.0809 µM (active) | 0.0343 µM (active) | 0.0184 µM (active) | – | 0.00139 µM (active) | 0.0239 µM (active) | 0.0333 µM (active) | 0.223 µM (active) | 0.0181 µM (active) | 0.0414 µM (active) | 0.0179 µM (active) | 0.00071 µM (active) | 3.02 µM (inactive) | 0.00511 µM (active) | – | 0.0706 µM (active) | 0.0873 µM (active) | 0.00361 µM (active)
11 | Cn1c2ccccc2c(=O)c2c(O)cc3c(c21)C=CC(C)(C)O3 [NORACRONYCINE] | > 25 µM (inactive) | > 25 µM (inactive) | 3.05 µM (inactive) | > 25 µM (inactive) | > 25 µM (inactive) | – | > 25 µM (inactive) | > 25 µM (inactive) | 12.2 µM (inactive) | > 25 µM (inactive) | > 25 µM (inactive) | > 25 µM (inactive) | > 25 µM (inactive) | > 16.8 µM (inactive) | 2.5 µM (inactive) | > 25 µM (inactive) | – | > 25 µM (inactive) | > 25 µM (inactive) | > 11.1 µM (inactive)
12 | CCOc1cc(C2CC(c3ccc(NS(=O)(=O)c4cc([N+](=O)[O-])ccc4C)cc3)=NN2S(=O)(=O)c2cc([N+](=O)[O-])ccc2C)ccc1O (stereo unspecified) | 23.4 µM (inactive) | 23.3 µM (inactive) | 42.9 µM (inactive) | > 100 µM (inactive) | 31.6 µM (inactive) | 36.4 µM (inactive) | 34.3 µM (inactive) | 22.6 µM (inactive) | 64.7 µM (inactive) | 32.6 µM (inactive) | 39.7 µM (inactive) | 30.6 µM (inactive) | 33.7 µM (inactive) | – | 42.8 µM (inactive) | 30.7 µM (inactive) | 39.6 µM (inactive) | 41.1 µM (inactive) | 18.5 µM (inactive) | 38.5 µM (inactive)
13 | CCC1CN2CCC1CC2 (stereo unspecified) | > 100 µM (inactive) | > 100 µM (inactive) | – | > 100 µM (inactive) | > 100 µM (inactive) | – | > 100 µM (inactive) | > 100 µM (inactive) | > 100 µM (inactive) | > 100 µM (inactive) | > 100 µM (inactive) | > 100 µM (inactive) | > 100 µM (inactive) | > 100 µM (inactive) | > 100 µM (inactive) | > 100 µM (inactive) | – | > 100 µM (inactive) | > 100 µM (inactive) | > 100 µM (inactive)
14 | O=C(O)CCCCCCCCC(=O)O [SEBACIC ACID] | 79.3 µM (inactive) | > 500 µM (inactive) | > 500 µM (inactive) | > 500 µM (inactive) | > 500 µM (inactive) | – | > 500 µM (inactive) | > 500 µM (inactive) | > 500 µM (inactive) | > 79.3 µM (inactive) | > 500 µM (inactive) | 79.3 µM (inactive) | > 79.3 µM (inactive) | > 79.3 µM (inactive) | 108 µM (inactive) | > 79.3 µM (inactive) | – | > 500 µM (inactive) | > 23.2 µM (inactive) | 316 µM (inactive)
